In US20240228535A1 (priority 2022, published 2024):

Biological target: SARS2 coronavirus 3CL protease (Severe acute respiratory syndrome coronavirus 2, UniProt P0DTD1)
Assay: biochemical
Settings: 5 nM enzyme, 30 min pre-incubation with compound, 15 μM peptide substrate, 4 h at room temperature; read-out: FRET Potency (nM); IC50 values in the SARS2 3CLPro FRET assay

| SMILES | IC50 |
| --- | --- |
| C[C@@H]1C[C@@H](C[C@H](NC(=O)c2cc(Cl)ccc2NC(=O)C2(C(F)(F)F)CCC2)C(=O)C(=O)NC2CC2)C(=O)N1 [Example 35, 5-chloro-N-[(1S)-3-(cyclopropylamino)-1-[[(3S,5R)-5-methyl-2-oxo-pyrrolidin-3-yl]methyl]-2,3-dioxo-propyl]-2-[[1-(trifluoromethyl)cyclobutanecarbonyl]amino]benzamide] | 11.1 nM |
| CNC(=O)C(=O)[C@H](C[C@@H]1C[C@@H](C)NC1=O)NC(=O)c1cc(F)c(F)cc1NC(=O)OC1CC1 [Example 141, cyclopropyl N-[4,5-difluoro-2-[[(1S)-3-(methylamino)-1-[[(3S,5R)-5-methyl-2-oxo-pyrrolidin-3-yl]methyl]-2,3-dioxo-propyl]carbamoyl]phenyl] carbamate] | 19.8 nM |
| CNC(=O)C(=O)[C@H](C[C@@H]1C[C@@H](C)NC1=O)NC(=O)c1cc(Cl)ccc1NC(=O)[C@@H](N(C)C(=O)OC)C(C)(C)C [Example 221] | 41.9 nM |
| C[C@@H]1C[C@@H](C[C@H](NC(=O)c2cc(Cl)ccc2NC(=O)C23CC(C(F)(F)F)(C2)C3)C(=O)C(=O)NC2CC2)C(=O)N1 [Example 69, N-[4-chloro-2-[[(1S)-3-(cyclopropylamino)-1-[[(3S,5R)-5-methyl-2-oxo-pyrrolidin-3-yl]methyl]-2,3-dioxo-propyl]carbamoyl]phenyl]-3-(trifluoromethyl)bicyclo[1.1.1] pentane-1-carboxamide] | 6.9 nM |
| CNC(=O)C(=O)[C@H](C[C@@H]1C[C@@H](C)NC1=O)NC(=O)c1cc(Cl)ccc1NC(=O)OCC1CC1(F)F (stereo partly drawn) [Example 186, (2,2-difluorocyclopropyl)methyl N-[4-chloro-2-[[(1S)-3-(methylamino)-1-[[(3S,5R)-5-methyl-2-oxo-pyrrolidin-3-yl]methyl]-2,3-dioxo-propyl]carbamoyl]phenyl] carbamate] | 2.5 nM |
| C[C@@H]1C[C@@H](C[C@H](NC(=O)c2cc(F)c(F)cc2NC(=O)c2cncc(C(F)(F)F)c2)C(=O)C(=O)NC2CC2)C(=O)N1 [Example 99, N-[2-[[(1S)-3-(cyclopropylamino)-1-[[(3S,5R)-5-methyl-2-oxo-pyrrolidin-3-yl]methyl]-2,3-dioxo-propyl]carbamoyl]-4,5-difluoro-phenyl]-5-(trifluoromethyl)pyridine-3-carboxamide] | 13 nM |
| O=C(NC1CC1)C(=O)[C@H](C[C@@H]1CCNC1=O)NC(=O)c1cc(Cl)ccc1NC(=O)C12CC(F)(C1)C2 [Example 37, N-[4-chloro-2-[[(1S)-3-(cyclopropylamino)-2,3-dioxo-1-[[(3S)-2-oxopyrrolidin-3-yl]methyl]propyl]carbamoyl]phenyl]-3-fluoro-bicyclo[1.1.1]pentane-1-carboxamide] | 10.7 nM |
| C[C@@H]1C[C@@H](C[C@H](NC(=O)c2cc(Cl)ccc2NC(=O)CC(F)(F)F)C(=O)C(=O)NC2CC2)C(=O)N1 [Example 42, 5-chloro-N-[(1S)-3-(cyclopropylamino)-1-[[(3S,5R)-5-methyl-2-oxo-pyrrolidin-3-yl]methyl]-2,3-dioxo-propyl]-2-(3,3,3-trifluoropropanoylamino) benzamide] | 9.8 nM |
| CNC(=O)C(=O)[C@H](C[C@@H]1C[C@@H](C)NC1=O)NC(=O)c1cc(Cl)ccc1NC(=O)C(C)C(F)(F)F (stereo partly drawn) [Example 24, 5-chloro-N-[(1S)-3-(methylamino)-1-[[(3S,5R)-5-methyl-2-oxo-pyrrolidin-3-yl]methyl]-2,3-dioxo-propyl]-2-[(3,3,3-trifluoro-2-methyl-propanoyl)amino]benzamide] | 18.6 nM |
| C[C@@H]1C[C@@H](C[C@H](NC(=O)c2cc(Cl)ccc2NC(=O)c2ccnc(C(F)(F)F)c2)C(=O)C(N)=O)C(=O)N1 [Example 208, N-[2-[[(1S)-3-amino-1-[[(3S,5R)-5-methyl-2-oxo-pyrrolidin-3-yl]methyl]-2,3-dioxo-propyl]carbamoyl]-4-chloro-phenyl]-2-(trifluoromethyl)pyridine-4-carboxamide] | 6.9 nM |
| C[C@@H]1C[C@@H](C[C@H](NC(=O)c2cc(C(F)F)ccc2NC(=O)c2cccc(C(F)(F)F)c2)C(=O)C(=O)NC2CC2)C(=O)N1 [Example 44, N-[(1S)-3-(cyclopropylamino)-1-[[(3S,5R)-5-methyl-2-oxo-pyrrolidin-3-yl]methyl]-2,3-dioxo-propyl]-5-(difluoromethyl)-2-[[3-(trifluoromethyl)benzoyl]amino]benzamide] | 9.4 nM |
| CNC(=O)C(=O)[C@H](C[C@@H]1CCNC1=O)NC(=O)c1cc(Cl)ccc1NC(=O)[C@H]1CC1(F)F [Example 143, 5-chloro-2-[[(1R)-2,2-difluorocyclopropanecarbonyl]amino]-N-[(1S)-3-(methylamino)-2,3-dioxo-1-[[(3S)-2-oxopyrrolidin-3-yl]methyl]propyl]benzamide] | 3 nM |
| CNC(=O)C(=O)[C@H](C[C@@H]1CCNC1=O)NC(=O)c1cc(Cl)ccc1NC(=O)CCC(F)(F)F [Example 159, 5-chloro-N-[(1S)-3-(methylamino)-2,3-dioxo-1-[[(3S)-2-oxopyrrolidin-3-yl]methyl]propyl]-2-(4,4,4-trifluorobutanoylamino) benzamide] | 7.9 nM |
| C[C@@H]1C[C@@H](C[C@H](NC(=O)c2cc(Cl)ccc2NC(=O)[C@H]2CN(C)C(=O)O2)C(=O)C(=O)NC2CC2)C(=O)N1 [Example 205] | 6.6 nM |
| CNC(=O)C(=O)[C@H](C[C@@H]1C[C@@H](C)NC1=O)NC(=O)c1cc(Cl)ccc1NC(=O)c1cncc(C(F)(F)F)c1 [Example 91, N-[4-chloro-2-[[(1S)-3-(methylamino)-1-[[(3S,5R)-5-methyl-2-oxo-pyrrolidin-3-yl]methyl]-2,3-dioxo-propyl]carbamoyl]phenyl]-5-(trifluoromethyl)pyridine-3-carboxamide] | 6.1 nM |
| CNC(=O)C(=O)[C@H](C[C@@H]1C[C@@H](C)NC1=O)NC(=O)c1cc(Cl)ccc1NC(=O)OCC(F)(F)F [Example 181, 2,2,2-trifluoroethyl N-[4-chloro-2-[[(1S)-3-(methylamino)-1-[[(3S,5R)-5-methyl-2-oxo-pyrrolidin-3-yl]methyl]-2,3-dioxo-propyl]carbamoyl]phenyl] carbamate] | 7.2 nM |
| C[C@@H]1C[C@@H](C[C@H](NC(=O)c2cc(Cl)ccc2NC(=O)c2cccc(C(F)(F)F)c2)C(=O)C(=O)NC2CC2)C(=O)N1 [Example 66, 5-chloro-N-[(1S)-3-(cyclopropylamino)-1-[[(3S,5R)-5-methyl-2-oxo-pyrrolidin-3-yl]methyl]-2,3-dioxo-propyl]-2-[[3-(trifluoromethyl)benzoyl]amino]benzamide] | 7 nM |
| CNC(=O)C(=O)[C@H](C[C@@H]1C[C@@H](C)NC1=O)NC(=O)c1cc(C(F)(F)F)ccc1NC(=O)OC1CC1 [Example 169, cyclopropyl N-[2-[(1S)-3-(methylamino)-1-[[(3S,5R)-5-methyl-2-oxo-pyrrolidin-3-yl]methyl]-2,3-dioxo-propyl]carbamoyl]-4-(trifluoromethyl)phenyl] carbamate] | 75.3 nM |
| C[C@@H]1C[C@@H](C[C@H](NC(=O)c2cc(Cl)ccc2NC(=O)N(C)CC2CCC(F)(F)CC2)C(=O)C(=O)NC2CC2)C(=O)N1 [Example 105, 5-chloro-N—((S)-4-(cyclopropylamino)-1-((3S,5R)-5-methyl-2-oxopyrrolidin-3-yl)-3,4-dioxobutan-2-yl)-2-(3-((4,4-difluorocyclohexyl)methyl)-3-methylureido)benzamide] | 10.9 nM |
| CNC(=O)C(=O)[C@H](C[C@@H]1CCNC1=O)NC(=O)c1cc(Cl)ccc1NC(=O)OC [Example 106] | 4.3 nM |
| C[C@@H]1C[C@@H](C[C@H](NC(=O)c2cc(Cl)ccc2NC(=O)c2cccc(F)c2)C(=O)C(=O)NC2CC2)C(=O)N1 [Example 73, 5-chloro-N-[(1S)-3-(cyclopropylamino)-1-[[(3S,5R)-5-methyl-2-oxo-pyrrolidin-3-yl]methyl]-2,3-dioxo-propyl]-2-[(3-fluorobenzoyl)amino] benzamide] | 6.2 nM |
| O=C(NC1CC1)C(=O)[C@H](C[C@@H]1CCNC1=O)NC(=O)c1cc(Cl)ccc1NC(=O)C1(C(F)(F)F)CC1 [Example 102] | 12.9 nM |
| CNC(=O)C(=O)[C@H](C[C@@H]1C[C@@H](C)NC1=O)NC(=O)c1cc(F)cnc1NC(=O)c1cccc(C(F)(F)F)c1 [Example 28, 5-fluoro-N-[(1S)-3-(methylamino)-1-[[(3S,5R)-5-methyl-2-oxo-pyrrolidin-3-yl]methyl]-2,3-dioxo-propyl]-2-[[3-(trifluoromethyl)benzoyl]amino]pyridine-3-carboxamide] | 13.2 nM |
| CNC(=O)C(=O)[C@H](C[C@@H]1C[C@@H](C)NC1=O)NC(=O)c1cc(Cl)ccc1NC(=O)OC1CC1(F)F (stereo partly drawn) [Example 171, (2,2-difluorocyclopropyl) N-[4-chloro-2-[(1S)-3-(methylamino)-1-[[(3S,5R)-5-methyl-2-oxo-pyrrolidin-3-yl]methyl]-2,3-dioxo-propyl]carbamoyl]phenyl] carbamate] | 3.2 nM |
| CNC(=O)C(=O)[C@H](C[C@@H]1C[C@@H](C)NC1=O)NC(=O)c1cc(Cl)cnc1NC(=O)C12CC(F)(C1)C2 [Example 50, 5-chloro-2-[(3-fluorobicyclo[1.1.1]pentane-1-carbonyl)amino]-N-[(1S)-3-(methylamino)-1-[[(3S,5R)-5-methyl-2-oxo-pyrrolidin-3-yl]methyl]-2,3-dioxo-propyl]pyridine-3-carboxamide] | 8.7 nM |
| CNC(=O)C(=O)[C@H](C[C@@H]1CCNC1=O)NC(=O)c1cc(Cl)ccc1NC(=O)C12CC(F)(C1)C2 [Example 47] | 8.8 nM |
| CNC(=O)C(=O)[C@H](C[C@@H]1C[C@@H](C)NC1=O)NC(=O)c1cc(Cl)ccc1NC(=O)C(C)c1cscn1 (stereo partly drawn) [Example 195, 5-chloro-N-[(1S)-3-(methylamino)-1-[[(3S,5R)-5-methyl-2-oxo-pyrrolidin-3-yl]methyl]-2,3-dioxo-propyl]-2-(2-thiazol-4-ylpropanoylamino)benzamide] | 3.1 nM |
| CNC(=O)C(=O)[C@H](C[C@@H]1C[C@@H](C)NC1=O)NC(=O)c1cc(Cl)ccc1NC(=O)OC1CCCC1 [Example 167, cyclopentyl N-[4-chloro-2-[[(1S)-3-(methylamino)-1-[[(3S,5R)-5-methyl-2-oxo-pyrrolidin-3-yl]methyl]-2,3-dioxo-propyl]carbamoyl]phenyl] carbamate] | 5.5 nM |
